Data as given in the supplement of paper PMC10307832.

Key:
Assay in all cases: relative viability (nuclei count vs DMSO), 5 days (fraction); higher = more cells survive
Decitabine + Crizotinib = compound: Nc1ncn([C@H]2C[C@H](O)[C@@H](CO)O2)c(=O)n1 [Decitabine] + C[C@@H](Oc1cc(-c2cnn(C3CCNCC3)c2)cnc1N)c1c(Cl)ccc(F)c1Cl [Crizotinib] (partner 1 µM)
How it was run: (§1)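 Each reported value is a median over duplicate plates. It expresses relative viability: treated-well nuclei count divided by vehicle-well nuclei count. Lung cancer cell lines in 1536-well plates were dosed by pin tool a day after seeding, alone with one drug or with a fixed anchor-drug dose plus five library-drug doses (not always all listed) in √10 steps, and nuclei were counted after 5 days.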

Cediranib + Luminespib = compound: COc1cc2c(Oc3ccc4[nH]c(C)cc4c3F)ncnc2cc1OCCCN1CCCC1 [Cediranib] + CCNC(=O)c1noc(-c2cc(C(C)C)c(O)cc2O)c1-c1ccc(CN2CCOCC2)cc1 [Luminespib] (partner 0.01 µM)
How it was run: as §1

Decitabine + Foretinib = compound: Nc1ncn([C@H]2C[C@H](O)[C@@H](CO)O2)c(=O)n1 [Decitabine] + COc1cc2c(Oc3ccc(NC(=O)C4(C(=O)Nc5ccc(F)cc5)CC4)cc3F)ccnc2cc1OCCCN1CCOCC1 [Foretinib] (partner 0.25 µM)
How it was run: as §1

| Cell Line | relative viability (Decitabine + Crizotinib; first compound 0.04 µM) | relative viability (Decitabine + Crizotinib; first compound 0.1265 µM) | relative viability (Decitabine + Crizotinib; first compound 0.4 µM) | relative viability (Decitabine + Crizotinib; first compound 1.265 µM) | relative viability (Decitabine + Crizotinib; first compound 4 µM) | relative viability (Cediranib + Luminespib; first compound 0.04 µM) | relative viability (Cediranib + Luminespib; first compound 0.1265 µM) | relative viability (Cediranib + Luminespib; first compound 0.4 µM) | relative viability (Cediranib + Luminespib; first compound 1.265 µM) | relative viability (Cediranib + Luminespib; first compound 4 µM) | relative viability (Decitabine + Foretinib; first compound 0.04 µM) | relative viability (Decitabine + Foretinib; first compound 0.1265 µM) | relative viability (Decitabine + Foretinib; first compound 0.4 µM) | relative viability (Decitabine + Foretinib; first compound 1.265 µM) | relative viability (Decitabine + Foretinib; first compound 4 µM) |
| --- | --- | --- | --- | --- | --- | --- | --- | --- | --- | --- | --- | --- | --- | --- | --- |
| NCI-H661 | 0.929 | 0.945 | 0.918 | 0.619 | 0.523 | 0.978 | 0.842 | 0.913 | 0.908 | 0.982 | 1.02 | 0.966 | 0.777 | 0.6 | 0.554 |
| NCI-H727 | 0.711 | 0.513 | 0.537 | 0.341 | 0.33 | – | – | 0.511 | 0.463 | 0.395 | 0.669 | 0.675 | 0.651 | 0.775 | 0.483 |
| NCI-H838 | 0.389 | 0.314 | 0.228 | 0.248 | 0.2 | 0.328 | 0.289 | 0.276 | 0.314 | 0.272 | 0.716 | 0.492 | 0.357 | 0.387 | 0.301 |
| NCI-H1355 | 0.642 | 0.495 | 0.413 | 0.29 | 0.281 | 0.739 | 0.871 | 0.686 | 0.813 | 0.719 | 0.568 | 0.596 | 0.436 | 0.374 | 0.305 |
| NCI-H1437 | 0.692 | 0.748 | 0.632 | 0.297 | 0.216 | 1.15 | 1.05 | 1.04 | 1.1 | 1.13 | 1.11 | 0.881 | 0.657 | 0.468 | 0.391 |
| NCI-H1563 | 0.947 | 0.861 | 0.908 | 0.905 | 0.799 | 0.513 | 0.456 | 0.541 | 0.559 | 0.601 | 0.984 | 0.886 | 1.14 | 0.949 | 0.917 |
| NCI-H1650 | 0.838 | 0.603 | 0.331 | 0.326 | 0.241 | 0.192 | 0.161 | 0.179 | 0.197 | 0.173 | 0.903 | 0.855 | 0.553 | 0.512 | 0.301 |
| NCI-H1651 | 0.788 | 0.836 | 0.755 | 0.586 | 0.635 | 0.763 | 0.751 | 0.786 | 0.861 | 0.892 | 0.685 | 0.942 | 0.783 | 0.647 | 0.526 |
| NCI-H1666 | 0.7 | 0.75 | 0.708 | 0.512 | 0.46 | 1.05 | 1.04 | 1.05 | 0.981 | 1.07 | 0.91 | 0.86 | 0.776 | 0.662 | 0.68 |
| NCI-H1734 | 0.515 | 0.603 | 0.593 | 0.396 | 0.304 | 0.238 | 0.185 | 0.208 | 0.208 | 0.176 | 0.765 | 0.685 | 0.651 | 0.474 | 0.339 |
| NCI-H1755 | 0.762 | 0.811 | 0.804 | 0.53 | 0.317 | 0.556 | 0.419 | 0.403 | 0.232 | 0.467 | 0.889 | 0.886 | 0.804 | 0.565 | 0.447 |
| NCI-H1915 | 0.314 | 0.285 | 0.217 | 0.194 | 0.201 | 0.972 | 0.759 | 0.787 | 0.813 | 0.875 | 0.534 | 0.396 | 0.326 | 0.314 | 0.326 |
| NCI-H1944 | 0.787 | 0.859 | 0.627 | 0.45 | 0.387 | 0.767 | 0.796 | 0.741 | 0.72 | 0.963 | 0.766 | 0.752 | 0.567 | 0.444 | 0.396 |
| NCI-H1975 | 0.491 | 0.355 | 0.312 | 0.305 | 0.28 | 0.166 | 0.14 | 0.207 | 0.194 | 0.196 | 0.63 | 0.546 | 0.265 | 0.317 | 0.31 |
| NCI-H1993 | 0.898 | 0.776 | 0.832 | 0.702 | 0.728 | 0.637 | 0.901 | 0.906 | 0.851 | 0.597 | 0.746 | 0.693 | 0.824 | 0.742 | 0.771 |
| NCI-H2009 | 0.846 | 0.639 | 0.464 | 0.281 | 0.25 | 1.09 | 0.97 | 0.995 | 1.12 | 1.05 | 1.21 | 0.808 | 0.627 | 0.494 | 0.438 |
| NCI-H2023 | 0.471 | 0.455 | 0.285 | 0.217 | 0.133 | 0.844 | 0.639 | 0.732 | 0.405 | 0.53 | 0.649 | 0.617 | 0.369 | 0.265 | 0.189 |
| NCI-H2085 | 0.578 | 0.432 | 0.519 | 0.399 | 0.388 | 0.506 | 0.406 | 0.42 | 0.421 | 0.478 | 0.695 | 0.556 | 0.407 | 0.457 | 0.426 |
| NCI-H2087 | 0.515 | 0.568 | 0.563 | 0.347 | 0.292 | 0.194 | 0.191 | 0.191 | 0.136 | 0.144 | 0.558 | 0.624 | 0.393 | 0.317 | 0.269 |
| NCI-H2126 | 0.827 | 0.837 | 0.666 | 0.555 | 0.52 | 0.904 | 1.03 | 0.873 | 0.752 | 0.816 | 1.05 | 0.929 | 0.607 | 0.583 | 0.466 |
| NCI-H2170 | 0.942 | 0.875 | 0.79 | 0.463 | 0.395 | 0.654 | 0.704 | 0.666 | 0.547 | 0.848 | 0.87 | 0.85 | 0.767 | 0.437 | 0.393 |
| NCI-H2228 | 0.524 | 0.394 | 0.367 | 0.199 | 0.286 | 0.118 | 0.176 | 0.129 | 0.144 | 0.14 | 0.593 | 0.532 | 0.352 | 0.273 | 0.207 |
